From the supplement of paper PMC11208160 come the findings set out here.
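Further: IS621 recombinase and bridge RNA in Escherichia coli cells.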

The series in a line: recombinant barcode read abundance after kanamycin selection (control-corrected) (log10(CPM+1)); higher = more efficient recombination; sequences stand for … in AGTGCAGAGAAAATCGGCCAGTTTTCTCTGCCTGCAGTCCGCATGCCGT…AGATTTATGCAGCGGACTGCCTTTCTCCCAAAGTGATAAACCGGACAGTATCATGGACCGGTTTTCCCGGTAATCCGTATTTGCAAGGTTGGTTTCACT; site = the 11-nt target. In outline: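 Recombination efficiency in this pooled E. coli screen uses counts per million of barcodes at recombinant junctions, averaged and corrected against the control. The reported form is log10(CPM+1). Two replicates were plated on chloramphenicol/ampicillin LB agar as control and two on chloramphenicol/ampicillin/kanamycin with 0.1 mM IPTG.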
Turning to “TGTAGTCCTTGGGTTCTAACCTGTTGCGT (site TGTAGTCCTAA)”, the “recombinant barcode read abundance (log10)” value came out at 0.062.

Turning to “TGTAGTCCTTGGGTTCTAACCTGTTGCGT (site TGTAGTCCTAC)”, the “recombinant barcode read abundance (log10)” value came to 1.19. Then “TGTAGTCCTTGGGTTCTAACCTGTTGCGT (site TGTAGTCCTAG)”, with 0.293.

For “TGTAGTCCTTGGGTTCTAACCTGTTGCGT (site TGTAGTCCTAT)”, the “recombinant barcode read abundance (log10)” value worked out at 0.0925. For “TGTCCCGCTTGGGTTCTAACCTGTTGCCT (site TGTATCGCTAG)” the value was 0.0575; for “TGTCCCGCTTGGGTTCTAACCTGTTGCCT (site TGTCCCGCTAG)”, 0.708. With “TGTCCCTCTTGGGTTCTAACCTGTTGCCT (site TGTACCTCTAG)”, the “recombinant barcode read abundance (log10)” value is 0.014. Then “TGTCCCTCTTGGGTTCTAACCTGTTGCCT (site TGTCCCTCTAG)”, with 0.769. Take “TGTCCCTCTTGGGTTCTAACCTGTTGCCT (site TGTGCCTCTAG)”: the “recombinant barcode read abundance (log10)” value worked out at 0.111. As for “TGTCCCTCTTGGGTTCTAACCTGTTGCCT (site TGTTCCTCTAG)”, the “recombinant barcode read abundance (log10)” value came out at 0.0962. As for “TGTCGACCTTGGGTTCTAACCTGTTGCCT (site AGTCGACCTAG)”, the “recombinant barcode read abundance (log10)” value turned out to be 0.596. Then “TGTCGACCTTGGGTTCTAACCTGTTGCCT (site CGTCGACCTAG)”, with 0.113; and “TGTCGACCTTGGGTTCTAACCTGTTGCCT (site GGTCGACCTAG)”, with 0.0191. Then “TGTCGACCTTGGGTTCTAACCTGTTGCCT (site TGTCGACCTAG)”, with 0.709. Then “TGTCGGACTTGGGTTCTAACCTGTTGCAG (site TGTCGGACTAT)”, with 0.197; and “TGTCGGACTTGGGTTCTAACCTGTTGCAG (site TGTCGGACTCT)”, with 1.01; and “TGTCGGACTTGGGTTCTAACCTGTTGCAG (site TGTCGGACTGT)”, with 0.127. For “TGTCGGACTTGGGTTCTAACCTGTTGCAG (site TGTCGGACTTT)”, the “recombinant barcode read abundance (log10)” value worked out at 0.041. Take “TGTGCCTCTTGGGTTCTAACCTGTTGCCT (site TGTACCTCTAG)”: the “recombinant barcode read abundance (log10)” value was determined as 0.368.

For the sequence “TGTGCCTCTTGGGTTCTAACCTGTTGCCT (site TGTCCCTCTAG)”, the “recombinant barcode read abundance (log10)” value turned out to be 0.02.

“TGTGCCTCTTGGGTTCTAACCTGTTGCCT (site TGTGCCTCTAG)”: the “recombinant barcode read abundance (log10)” value was 0.564. For “TGTGCCTCTTGGGTTCTAACCTGTTGCCT (site TGTTCCTCTAG)” the value was 0.173; for “TGTTACCCTTGGGTTCTAACCTGTTGCCT (site TGGTACCCTAG)”, 0.0146. For the sequence “TGTTACCCTTGGGTTCTAACCTGTTGCCT (site TGTTACCCTAG)”, the “recombinant barcode read abundance (log10)” value amounted to 0.434. With “TGTTAGACTTGGGTTCTAACCTGTTGCCT (site TGTTAGACTAG)”, the “recombinant barcode read abundance (log10)” value amounted to 0.164. In the case of “TGTTAGACTTGGGTTCTAACCTGTTGCCT (site TGTTAGTCTCG)”, the “recombinant barcode read abundance (log10)” value was 0.113. For “TGTTCATCTTGGGTTCTAACCTGTTGCCT (site TGTTCATCTAG)” the value was 0.00521; for “TGTTCATCTTGGGTTCTAACCTGTTGCCT (site TGTTCTTCTAG)”, 0.0677; for “TGTTCTTCTTGGGTTCTAACCTGTTGCCT (site TGTTCATCTAG)”, 0.0245. For the sequence “TGTTCTTCTTGGGTTCTAACCTGTTGCCT (site TGTTCTTCTAG)”, the “recombinant barcode read abundance (log10)” value is 0.12. For “TGTTGGCCTTGGGTTCTAACCTGTTGCCT (site TGTTGCACTAG)” the value was 0.0375. For “TGTTGGCCTTGGGTTCTAACCTGTTGCCT (site TGTTGGCCTAG)” the value was 0.143; for “TTAACTACTTGGGTTCTAACCTGTTGCTA (site TTAACTACTAA)”, 0; for “TTAACTACTTGGGTTCTAACCTGTTGCTA (site TTAACTACTCA)”, 0.0937. Then “TTAACTACTTGGGTTCTAACCTGTTGCTA (site TTAACTACTGA)”, with 0.0479; and “TTAACTACTTGGGTTCTAACCTGTTGCTA (site TTAACTACTTA)”, with 0.152. As for “TTAACTACTTGGGTTCTAACCTGTTGCTG (site TTAACTACTAA)”, the “recombinant barcode read abundance (log10)” value worked out at 0.0189. For “TTAACTACTTGGGTTCTAACCTGTTGCTG (site TTAACTACTCA)”, the “recombinant barcode read abundance (log10)” value was found to be 0.425. With “TTAACTACTTGGGTTCTAACCTGTTGCTG (site TTAACTACTGA)”, the “recombinant barcode read abundance (log10)” value stood at 0.0228. For “TTAACTACTTGGGTTCTAACCTGTTGCTG (site TTAACTACTTA)” the value was 0.0609; for “TTACGCTCTTGGGTTCTAACCTGTTGCTA (site GGTTATCCTCC)”, 0.191. Turning to “TTACGCTCTTGGGTTCTAACCTGTTGCTA (site TTACGCTCTTA)”, the “recombinant barcode read abundance (log10)” value was 0.621. Regarding “TTACGGGCTTGGGTTCTAACCTGTTGCGG (site TTACGAGCTCC)”, the “recombinant barcode read abundance (log10)” value worked out at 1.71. Take “TTACGGGCTTGGGTTCTAACCTGTTGCGG (site TTACGCGCTCC)”: the “recombinant barcode read abundance (log10)” value came to 0.183.

Consider “TTACGGGCTTGGGTTCTAACCTGTTGCGG (site TTACGGGCTCC)”, for which the “recombinant barcode read abundance (log10)” value was found to be 2.58. As to “TTACGGGCTTGGGTTCTAACCTGTTGCGG (site TTACGTGCTCC)”, the “recombinant barcode read abundance (log10)” value worked out at 0.189. Regarding “TTACTAGCTTGGGTTCTAACCTGTTGCGT (site AGACTAGCTAC)”, the “recombinant barcode read abundance (log10)” value is 0.0536. Then “TTACTAGCTTGGGTTCTAACCTGTTGCGT (site TTACTAGCTAC)”, with 1.98. For “TTACTCTCTTGGGTTCTAACCTGTTGCCT (site TAACTCTCTAG)” the value was 0.127. For “TTACTCTCTTGGGTTCTAACCTGTTGCCT (site TCACTCTCTAG)” the value was 0.141; for “TTACTCTCTTGGGTTCTAACCTGTTGCCT (site TGACTCTCTAG)”, 0.137; for “TTACTCTCTTGGGTTCTAACCTGTTGCCT (site TTACTCTCTAG)”, 2.13.

With “TTAGGGACTTGGGTTCTAACCTGTTGCCT (site TTAGGGACTAG)”, the “recombinant barcode read abundance (log10)” value turned out to be 2.18. For “TTAGGGACTTGGGTTCTAACCTGTTGCCT (site TTAGGGCCTAG)” the value was 0.0947; for “TTAGGGACTTGGGTTCTAACCTGTTGCCT (site TTAGGGGCTAG)”, 0.517. In the case of “TTAGGGACTTGGGTTCTAACCTGTTGCCT (site TTAGGGTCTAG)”, the “recombinant barcode read abundance (log10)” value is 0.108.

Consider “TTAGGGGCTTGGGTTCTAACCTGTTGCCT (site TTAGGGACTAG)”, for which the “recombinant barcode read abundance (log10)” value turned out to be 0.911.

As to “TTAGGGGCTTGGGTTCTAACCTGTTGCCT (site TTAGGGCCTAG)”, the “recombinant barcode read abundance (log10)” value worked out at 0.08.

For “TTAGGGGCTTGGGTTCTAACCTGTTGCCT (site TTAGGGGCTAG)”, the “recombinant barcode read abundance (log10)” value amounted to 1.51. In the case of “TTAGGGGCTTGGGTTCTAACCTGTTGCCT (site TTAGGGTCTAG)”, the “recombinant barcode read abundance (log10)” value was determined as 0.0155. For “TTAGGTCCTTGGGTTCTAACCTGTTGCAG (site TTAGATCCTAT)”, the “recombinant barcode read abundance (log10)” value came out at 0.182. For “TTAGGTCCTTGGGTTCTAACCTGTTGCAG (site TTAGGTCCTCT)” the value was 2.5. Then “TTAGTAACTTGGGTTCTAACCTGTTGCCT (site CTAGTACCTAG)”, with 0.0115; and “TTAGTAACTTGGGTTCTAACCTGTTGCCT (site TTAGTAACTAG)”, with 1.21; and “TTAGTACCTTGGGTTCTAACCTGTTGCCT (site TTAGTACCTAG)”, with 2.55. For “TTAGTACCTTGGGTTCTAACCTGTTGCCT (site TTAGTCCCTAG)” the value was 0.218. For “TTAGTACCTTGGGTTCTAACCTGTTGCCT (site TTAGTGCCTAG)”, the “recombinant barcode read abundance (log10)” value turned out to be 0.135. Consider “TTAGTACCTTGGGTTCTAACCTGTTGCCT (site TTAGTTCCTAG)”, for which the “recombinant barcode read abundance (log10)” value was 0.369. Take “TTAGTCCCTTGGGTTCTAACCTGTTGCCG (site CTAGTCCCTCG)”: the “recombinant barcode read abundance (log10)” value was determined as 1.09. “TTAGTCCCTTGGGTTCTAACCTGTTGCCG (site TTAGTCCCTCG)”: the “recombinant barcode read abundance (log10)” value came to 2.14.

As for “TTAGTGCCTTGGGTTCTAACCTGTTGCCT (site TTAGTACCTAG)”, the “recombinant barcode read abundance (log10)” value stood at 1.55. Take “TTAGTGCCTTGGGTTCTAACCTGTTGCCT (site TTAGTCCCTAG)”: the “recombinant barcode read abundance (log10)” value was 0.0383. Take “TTAGTGCCTTGGGTTCTAACCTGTTGCCT (site TTAGTGCCTAG)”: the “recombinant barcode read abundance (log10)” value worked out at 2.14. As to “TTAGTGCCTTGGGTTCTAACCTGTTGCCT (site TTAGTTCCTAG)”, the “recombinant barcode read abundance (log10)” value is 0.0759. As to “TTAGTTCCTTGGGTTCTAACCTGTTGCCT (site TTAGTACCTAG)”, the “recombinant barcode read abundance (log10)” value amounted to 0.146. As for “TTAGTTCCTTGGGTTCTAACCTGTTGCCT (site TTAGTCCCTAG)”, the “recombinant barcode read abundance (log10)” value is 0.186. For “TTAGTTCCTTGGGTTCTAACCTGTTGCCT (site TTAGTGCCTAG)” the value was 0.
